Test results taken from PubChem BioAssay (NCI).
“And” between values parts separate entries of the source, which are not always exact repeats. Identical values can stand only once.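 Grown in 96-well plates, cells were treated for 48 hours with each compound at five concentrations. Insufficient inhibition: endpoint recorded as highest concentration tested. Here, GI50 denotes the concentration required for 50% inhibition of growth. At the TGI there is no net growth.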

Legend:
Experiment in all cases: growth of human tumour cells (NCI), 48 h
DU-145 prostate = test system: DU-145 prostate
MCF7 breast = test system: MCF7 breast
MDA-MB-231 breast = test system: MDA-MB-231 breast
MDA-MB-435 = test system: MDA-MB-435
PC-3 prostate = test system: PC-3 prostate
DMS 273 small cell lung = test system: DMS 273 small cell lung
LXFL 529 NSCLC = test system: LXFL 529 NSCLC
SNB-78 CNS = test system: SNB-78 CNS

SMILES	GI50 (DU-145 prostate)	TGI (DU-145 prostate)	GI50 (MCF7 breast)	TGI (MCF7 breast)	GI50 (MDA-MB-231 breast)	TGI (MDA-MB-231 breast)	GI50 (MDA-MB-435)	TGI (MDA-MB-435)	GI50 (PC-3 prostate)	TGI (PC-3 prostate)	TGI (DMS 273 small cell lung) [µM]	TGI (LXFL 529 NSCLC) [µM]	TGI (SNB-78 CNS) [µM]
Cc1ccc(S(=O)(=O)Nc2nc3ccccc3nc2Nc2ccc3nsnc3c2)cc1	5.04 µM and 4.45 µM	> 100 µM	6.55 µM and 4.6 µM	> 100 µM	6.58 µM and 7.37 µM	26.6 µM and > 100 µM	4.09 µM and 3.15 µM	> 100 µM	3220 nM and 2910 nM	> 100 µM			
CCCCCCCCCCCC[n+]1ccc(C(N)=O)cc1	4.6 µM	17.2 µM	3.7 µM	15.4 µM	2.91 µM	10.9 µM	3.17 µM	14.9 µM	710 nM	3.55 µM			
OC(CNc1ccnc2cc(Cl)ccc12)CNC1CCCCC1 (stereo not given)	13.9 µM	28.2 µM	7.36 µM	21.9 µM	4.21 µM	18.7 µM	1.7 µM	3.28 µM	8080 nM	28.7 µM			
CCCN(CCC)C(=O)[C@H](CC)[C@@H]1CC[C@@H](C)[C@@H]([C@H](C)[C@@H](O)[C@@H](C)C(=O)[C@H](CC)C2O[C@]3(C=C[C@@H](O)[C@]4(CC[C@@](C)([C@H]5CC[C@](O)(CC)[C@H](C)O5)O4)O3)[C@H](C)C[C@@H]2C)O1 (stereo not given in full)	2.05 µM	4.21 µM	2.46 µM	7.76 µM	1.62 µM	3.28 µM	2.96 µM	9.71 µM	2050 nM	11 µM			
Oc1ccc(N=Nc2ccc(N=Nc3ccccc3)cc2)cc1	2.09 µM	12.2 µM	1.5 µM	6.86 µM	2.5 µM	7.09 µM	2.96 µM	14.7 µM	2830 nM	16.8 µM			
O=C1/C(=C/c2ccc(Cl)cc2)COc2ccc(O)c(O)c21	1.44 µM	3.13 µM	0.332 µM	2.15 µM	1.11 µM	3.25 µM	0.702 µM	2.63 µM	501 nM	3.48 µM			
CC1SC(=O)SC1C (stereo not given)				> 100 µM		> 100 µM		> 100 µM		> 100 µM			
CC(C)C[C@@H]1NC(=O)[C@@H]2CCCN2C(=O)[C@@H]2CCCN2C(=O)[C@H](CC(C)C)NC(=O)[C@H](CO)NC(=O)[C@H](CCCCN)NC(=O)[C@H]([C@H](C)O)NC(=O)[C@@H]2CCCC[C@@H](NC1=O)C(=O)N[C@@H](Cc1ccccc1)C(=O)N1CCC[C@H]1C(=O)N[C@@H](CC(=O)O)C(=O)NCC(=O)N[C@@H](CCCN=C(N)N)C(=O)N2	> 50 µM	> 50 µM	> 50 µM	> 50 µM	> 50 µM	> 50 µM	> 50 µM	> 50 µM	> 50000 nM	> 50 µM			
N#Cc1nc2cc(F)c(F)cc2nc1-c1ccc(Cl)cc1	22.4 µM	> 82.6 µM	13.1 µM	> 100 µM		5.3 µM	17.5 µM	39.1 µM	4270 nM	20.2 µM			
CC(=O)c1c[nH]cc1CO				> 10 µM						> 10 µM			
Oc1c(N=Nc2ccccc2)c2ccccc2c2ccc3ccccc3c12		> 100 µM		> 100 µM		> 100 µM		> 100 µM		> 100 µM			
CN1CCn2c(c(Sc3ccc(C(=O)NO)cc3)c3ccccc32)C1=O	2.97 µM	12.8 µM	2.8 µM	> 77.1 µM	2.13 µM	5.09 µM			1960 nM	4.57 µM			
CCCCCN(CCCCC)CC(O)c1cc2c(c3ccccc13)CCCC2 (stereo not given)	10.1 µM and 21.4 µM	21.7 µM and 48.1 µM	3.65 µM and 4.63 µM	14.1 µM and 16.7 µM	3.01 µM and 7.04 µM	10.5 µM and 21.4 µM	7.68 µM and 13.2 µM	21.9 µM and 36.5 µM	5140 nM and 5620 nM	21.6 µM and 20.9 µM			
COc1cc(-c2oc3c(OC)c(O)c(OC)c(O)c3c(=O)c2OC)ccc1O		> 100 µM		> 100 µM		> 100 µM		49.1 µM		> 100 µM			
COCCNC(=O)c1ccc(-c2nc3ccc4[nH]ncc4c3c3c2CCCC3)cc1	2.12 µM	> 100 µM	2.52 µM	20.4 µM	2.15 µM	73 µM	2.83 µM	> 100 µM	2960 nM	> 100 µM			
C[C@@H]1C[C@@]2(O[C@@H]2C)C(=O)O[C@@H]2CCN3CC=C(COC(=O)[C@]1(C)O)[C@H]23		> 100 µM		> 100 µM		> 100 µM		> 100 µM		> 100 µM			
C=CC(=O)Nc1cccc(C)c1Nc1ncc2cc(-c3c(Cl)c(OC)cc(OC)c3Cl)ccc2n1	3.63 µM	> 100 µM	1.97 µM	> 100 µM	4.02 µM	46.4 µM	4.14 µM	17.4 µM	2090 nM	23.3 µM			
Cc1cc(C)c(NS(=O)c2cccc(Cl)c2)c(C)c1 (stereo not given)		> 100 µM		> 100 µM				> 100 µM		> 100 µM			
O=C1CCCC1NC(=O)C(F)(F)F (stereo not given)											> 100	> 100	> 100
CC1/C(=N/Nc2ccc([N+](=O)[O-])cc2)CC2C3(C)CCC2(C(C)C(=O)O)C(=O)C13 (stereo not given)	> 100 µM	> 100 µM	7.17 µM	> 100 µM	4.06 µM	> 100 µM	27.4 µM	> 100 µM	34400 nM	> 100 µM			
Clc1ccc2c(c1)-c1ccccc1C1=NCCN12	2.02 µM	4.62 µM	2.18 µM	8.58 µM	2.69 µM	12.4 µM	2.04 µM	5.76 µM	2030 nM	6.83 µM			
NCCCCN(Cc1nc2ccccc2[nH]1)[C@H]1CCCc2cccnc21	29.2 µM	> 100 µM	17.8 µM	> 72.7 µM	8.88 µM	56.3 µM	17.4 µM	54.6 µM	5520 nM	> 93.2 µM			
CS(=O)(=O)Nc1cc(-c2ccc3ncnc(Nc4ccc5c(cnn5Cc5ccccc5F)c4)c3c2)cnc1Cl	2 µM	> 38.2 µM	1.48 µM	30.3 µM	1.51 µM	> 100 µM	2.35 µM	8.32 µM	1310 nM	> 23.6 µM			
